Assay results as given in PMC5727165, “A switch in nucleotide affinity governs activation of the Src and Tec family kinases” (Scientific Reports, 2017).

Target: T1, Src^32K (Mus musculus, UniProt P05480)
T1 construct: mouse Src^85-535 (Src^32K); GST (cleaved yes); made in house; host or cells: baculovirus-infected Sf9 insect cells, co-expressed with human Csk
Experiment: Competition nucleotide displacement assay (Mant-ADP, fluorescence anisotropy)
Type: binding
Settings: Src^32K (pY527); displacement of Mant-ADP
Protocol: Figure 1 Autoinhibited Itk and Src kinases preferentially bind ADP. (a) Schematic of constructs evaluated in this study. Itk^32K, Src^32K, and Src^32KΔC contain the conserved module of SH3, SH2, and kinase (^32K) domains. Src^32K was truncated by […] to remove its C-terminal tail (inclusive of the Y527 phosphorylation site), generating a construct we refer to as Src^32KΔC (ΔC-tail). (b) Competition nucleotide displacement assay for Itk^32K. 40 μM Itk^32K was incubated with 40 μM Mant-ADP until equilibrium was established. Unlabelled ADP or AMPPNP was titrated into the reaction and fluorescence anisotropy monitored. Comparison of the equilibrium inhibition constants (K i) gives an indication of the relative strength of nucleotide binding. […] (c) Competition nucleotide displacement assay for Src^32K. 40 μM tail-phosphorylated Src^32K (pY527) or doubly phosphorylated Src^32K pY416 (pY527) was incubated with 40 μM Mant-ADP until equilibrium was established. Unlabelled ADP or AMPPNP was titrated into the reaction and fluorescence anisotropy monitored. Solid lines correspond to Src^32K, dashed lines to Src^32K pY416. AMPPNP binds to Src^32K with 20-fold weaker affinity than ADP. […] (d) Omit map showing clear electron density for ADP and a single magnesium ion in the nucleotide-binding pocket of Src. The magnesium is coordinated by Asn391, Asp404, and the α- and β- phosphates of ADP. The β-phosphate is directly coordinated by the guanidinium side chain of Arg388. […]
Since the concentration of ATP in the cell is typically higher than ADP[33],[34], we performed nucleotide competition assays in order to determine which nucleotide is bound in vivo. We measured the concentrations of ADP or AMPPNP required to displace Mant-ADP. […]
The binding constants for ADP and AMPPNP were determined for Src and Itk proteins by fluorescence anisotropy, using 2′/3′-Mant-labelled nucleotides (Jena Bioscience). […] Unlabelled nucleotide was titrated into the reaction and fluorescence anisotropy monitored. The equilibrium inhibition constant for the unlabelled nucleotide was calculated from the fitted curve.

T1 sequence (P05480 85-535): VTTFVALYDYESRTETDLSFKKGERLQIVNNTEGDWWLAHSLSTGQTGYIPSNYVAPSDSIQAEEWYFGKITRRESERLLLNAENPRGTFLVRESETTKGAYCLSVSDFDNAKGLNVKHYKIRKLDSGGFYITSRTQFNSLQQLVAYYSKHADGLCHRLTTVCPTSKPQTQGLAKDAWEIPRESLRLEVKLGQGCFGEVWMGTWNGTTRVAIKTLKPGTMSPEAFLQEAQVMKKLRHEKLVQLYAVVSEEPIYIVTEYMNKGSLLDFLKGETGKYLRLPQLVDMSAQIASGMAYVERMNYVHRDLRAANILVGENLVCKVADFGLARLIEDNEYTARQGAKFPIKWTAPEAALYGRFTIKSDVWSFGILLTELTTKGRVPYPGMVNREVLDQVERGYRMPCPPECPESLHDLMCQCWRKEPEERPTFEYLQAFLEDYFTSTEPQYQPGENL

- fold difference in Ki, ADP preferred over AMPPNP: 19 fold
Structure (SMILES): Nc1ncnc2c1ncn2[C@@H]1O[C@H](COP(=O)(O)OP(=O)(O)O)[C@@H](O)[C@H]1O [ADP]
